Key:
Type in all cases: functional
L1210 = experiment: In vitro Inhibitory activity against the growth of L1210 murine lymphocytic leukemia; conditions: Mus musculus, read-out: ID50 (the source's name)
Homo sapiens = species on record: Homo sapiens; experiment: In vitro Inhibitory activity against the growth of WIL-2 human B lymphoblastic leukemia.
CCRF-CEM = experiment: In vitro inhibitory activity against the growth of CCRF-CEM human T lymphoblastic leukemia.; conditions: read-out: ID50 (the source's name)

IC50 (L1210): 3 µM
IC50 (CCRF-CEM): 35.5 µM
Compound: CC1=CSCC(=O)N1
ID50 (Homo sapiens): 41.7 µM

Reference: ChEMBL document CHEMBL1124178, “Nucleosides of 1,4-thiazin-3-one and derivatives as tetrahedral intermediate analogues of enzymes in pyrimidine nucleoside metabolism” (J Med Chem, 1988)
